Consider one molecule from publication PMC12281487, “Discovery and Validation of a Novel Class of Necroptosis Inhibitors Targeting RIPK1” (ACS Chemical Biology, 2025).

The target of experiment [1] is T1, RIPK1 (Homo sapiens, UniProt Q13546).
T1 construct: Following incubation of I2.1 cells with the probe, irradiation to induce photocrosslinking; endogenous in cells; host or cells: I2.1 FADD-deficient Jurkat T cells (ATCC, CRL-2572)
T1 sequence (Q13546 1-671): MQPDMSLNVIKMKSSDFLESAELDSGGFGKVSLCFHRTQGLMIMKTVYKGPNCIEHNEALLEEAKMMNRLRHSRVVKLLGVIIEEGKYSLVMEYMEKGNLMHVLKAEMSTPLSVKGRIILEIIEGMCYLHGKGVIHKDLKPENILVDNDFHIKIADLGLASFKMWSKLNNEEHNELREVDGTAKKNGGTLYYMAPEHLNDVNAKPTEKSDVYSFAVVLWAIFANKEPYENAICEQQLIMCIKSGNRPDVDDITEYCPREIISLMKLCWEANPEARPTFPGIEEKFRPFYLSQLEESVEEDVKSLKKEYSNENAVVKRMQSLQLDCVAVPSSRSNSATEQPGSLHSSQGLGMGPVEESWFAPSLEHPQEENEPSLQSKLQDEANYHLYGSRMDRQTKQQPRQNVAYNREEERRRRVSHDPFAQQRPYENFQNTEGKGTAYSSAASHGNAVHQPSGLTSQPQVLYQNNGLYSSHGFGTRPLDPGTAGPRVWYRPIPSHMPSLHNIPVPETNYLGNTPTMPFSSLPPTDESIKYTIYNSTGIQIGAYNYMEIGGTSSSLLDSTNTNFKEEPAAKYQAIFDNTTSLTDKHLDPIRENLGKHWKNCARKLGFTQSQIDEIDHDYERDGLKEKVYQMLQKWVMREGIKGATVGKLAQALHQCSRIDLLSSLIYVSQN
In words: Streptavidin mass shift assay (photoaffinity labeling, target engagement) in I2.1 cells. In kind it is cell-based. The note with it: competition assay, pretreatment before 7PQYnD photoaffinity labeling.
Procedure: Target engagement was confirmed by Streptavidin mass shift assay, whereby lysates are incubated with streptavidin and subsequently separated by SDS–PAGE. The high stability of streptavidin at a range of temperatures, in various detergents and pH, in combination with the extremely high affinity for biotin means the streptavidin–biotin interaction is not separated during gel electrophoresis, resulting in a mass shift of biotin-labeled proteins in the presence of streptavidin, which can be visualized by Western blot (Figure a).
I2.1 cells were seeded in sterile six-well plates at a density of 2 × 10^6 cells per well and incubated at 37 °C overnight. 1000× stocks of the desired concentration of compound in DMSO were preprepared. […]
Cells were transferred to a microcentrifuge tube, centrifuged at 200g for 5 min, and media removed. […] Protein concentration was determined using the DC Protein Assay (Bio-Rad) in a 96-well plate as per the manufacturer’s instructions and the concentration adjusted to 1–2 mg mL^–1 using lysis buffer. […]
Samples were prepared by adding 4 μL of 4× loading buffer to 10 μL of the protein samples and boiling at 95 °C for 10 min. […] In-gel fluorescence was detected by using a Typhoon FLA 9500 biomolecular imager (750 V, 100 μm pixels). […]

Experiment [2] concerns the target T2, kinase domain of RIPK1 (Homo sapiens, UniProt Q13546).
T2 construct: recombinant human kinase domain of RIPK1 [RIPK1 (8-322)-Avi-His]; His (C); made in house; host or cells: Sf21 insect cells (baculovirus, Bac-to-Bac), co-expressed with Cdc37
T2 sequence (Q13546 8-322): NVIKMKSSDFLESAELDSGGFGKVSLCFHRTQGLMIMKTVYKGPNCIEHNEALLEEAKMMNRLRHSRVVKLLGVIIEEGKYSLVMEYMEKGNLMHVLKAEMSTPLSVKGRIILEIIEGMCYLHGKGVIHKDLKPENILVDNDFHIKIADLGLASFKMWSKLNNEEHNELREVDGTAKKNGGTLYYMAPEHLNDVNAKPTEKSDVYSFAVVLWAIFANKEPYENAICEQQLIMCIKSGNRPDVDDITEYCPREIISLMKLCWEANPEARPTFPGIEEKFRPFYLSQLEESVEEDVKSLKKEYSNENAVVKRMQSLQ
The experiment is described as follows: SPR binding assay. How it is done: Biotinylated recombinant human kinase domain of RIPK1 [RIPK1 (8-322)-Avi-His] was produced in Sf21 cells using baculovirus infection (Bac-to-Bac system, Thermo Fisher Scientific). Briefly, the RIPK1 (8-322)-Avi-His baculovirus was inoculated into Sf21 cells at 1.5 × 10^6 cells/mL, with 1 mL of virus added per 500 mL of cells for P2 virus generation. The cells were grown at 27 °C, 140 rpm for 72 h. RIPK1 was co-expressed with Cdc37 at a 4:1 (RIPK1/Cdc37) v/v virus ratio in Sf21 cells by inoculation with P2 virus (25 mL per 500 mL bottle). The cells were grown at 27 °C while shaking at 140 rpm for 48 h before being harvested by centrifugation at 6500 rpm and 4 °C for 15 min and stored at −80 °C before further purification. 25 μM of Nec-1s (ab221984, Abcam) was added to the culture medium at time of viral infection to stabilize protein.
Briefly, RIPK1 kinase domain was immobilized on a streptavidin-coated sensor chip (Cytiva). The surface was washed with 10 mM NaOH, 1 M NaCl, followed by immobilization of the protein. […] The reference spot was treated as described, omitting the injection of RIPK1. Compound concentration series was injected over the immobilized protein in increasing concentrations using multi cycle or single cycle kinetics in running buffer (10 mM HEPES, 150 mM NaCl, 0.05% Tween20, 0.1% DMSO, pH 7.4). A 1:1 Langmuir interaction model was fitted to the experimental traces, enabling determination of k on, k off, and K D.
For orientation: In SPR one partner is held on a chip, and binding of the other changes the refractive index at the surface.

For `CN1C(=O)C(Cc2c[nH]c3ccccc23)NC1=S` (stereo not shown) [Nec-1, Necrostatin 1], the “7PQYnD-mediated RIPK1 streptavidin band shift after pretreatment with competitor” value in experiment [1] is “retained”. In experiment [2] (1:1 fitting, 20 °C), this molecule returned a koff of 0.011 ± 0.002 s⁻¹ and a kon of 260000 M⁻¹ s⁻¹. Besides, the Kd in experiment [2] (absence of Nec-1, read-out: Binding affinity (pKD) (converted)) is 44.7 nM.

Usually koff stands for the first-order rate constant of dissociation. One may read the kon as the second-order rate constant of association. A higher kon goes with fast association.
